Measured values published in patent publication US20230357240A1, “NOVEL N-HETEROCYCLIC BET BROMODOMAIN INHIBITOR, AND PREPARATION METHOD THEREOF AND MEDICAL USE THEREOF” (Chengdu Easton Biopharmaceuticals Co., Ltd., priority 2020, published 2023).

System: MV4-11 cell
Test: MV4-11 cell proliferation experiment (CCK-8 cell viability)
Format: cell-based
Details: Homo sapiens, MV4-11 cells, 72-hour culture
Protocol: EXAMPLE 9 Cell Experiment (MV4-11 Cell Proliferation Experiment)
Determination of Cell Viability with CCK-8 Reagent
(1) MV4-11 cell suspension was pipetted from a culture flask into a 15 mL centrifuge tube, and the cell suspension was centrifuged at 1000 rpm for 4 minutes.
(2) A supernatant in the centrifuge tube was discarded, and an appropriate amount of fresh complete medium (IMDM+10% FBS+1% P/S) was added to resuspend the cells. 20 μL of cell suspension was collected, 20 μL of trypan blue was added, and CounterStar was used for counting.
(3) A required cell suspension volume and complete medium volume were calculated according to viable cell density and the required number of plated cells. MV4-11 cells were plated at a density of 1*10^4 cells/well in 100 μL/well.
(4) 100 μL of the above cell suspension was pipetted into a 96-well plate by using an electric pipette. 150 μL of complete medium was added to blank control wells. PBS was added to peripheral wells of the 96-well plate, to avoid liquid evaporation. The 96-well plate was cultured overnight in an incubator.
Day 2: Compound Preparation:
(1) The compound of the present application dissolved in DMSO and the positive control substance ABBV-744 were fetched, and subjected to serial dilution (dilution in column A, column B, . . . , column J sequentially from left to right in a 96-well PCR plate).
An initial concentration of the solution in column A is 10 mM;
Column B: 2 μL of the solution in column A was diluted with 8 μL of DMSO to obtain a final concentration of 2000 μM;
Column C: 2 μL of the solution in column B was diluted with 8 μL of DMSO to obtain a final concentration of 400 μM;
Column D: 2 μL of the solution in column C was diluted with 8 μL of DMSO to obtain a final concentration of 80 μM;
Column E: 2 μL of the solution in column D was diluted with 8 μL of DMSO to obtain a final concentration of 16 μM;
Column F: 2 μL of the solution in column E was diluted with 8 μL of DMSO to obtain a final concentration of 3.2 μM;
Column G: 2 μL of the solution in column F was diluted with 8 μL of DMSO to obtain a final concentration of 0.64 μM;
Column H: 2 μL of the solution in column G was diluted with 8 μL of DMSO to obtain a final concentration of 0.128 μM;
Column I: 2 μL of the solution in column H was diluted with 8 μL of DMSO to obtain a final concentration of 0.0256 μM; and
Column J: 2 μL of the solution in column I was diluted with 8 μL of DMSO to obtain a final concentration of 0.00512 μM.
The suspension was centrifuged for 1 minute at 1000 rpm by using a low-speed centrifuge.
(2) 3×Compound Preparation: (Diluted in a 96-Well Cell Culture Plate)
3 μL of each of the solutions in columns B to J was pipetted into […] of complete medium by a 10 μL manual pipette to obtain 3×compound solutions with a final concentration of 30000, 6000, 1200, 240, 48, 9.6, 1.92, 0.384 and 0.0768 nM, respectively; and 3 μL of DMSO was pipetted into […] of complete medium as a control. The resulting 96-well cell culture plate was put on an oscillator to be oscillated at 500 rpm for 30 minutes.
(1) The prepared 3×compound solutions with the above concentrations were each pipetted by a manual pipette with its volume set to 50 μL into a corresponding well of the 96-well plate after overnight culture on the first day, and the total culture volume of each well was 150 μL. The final concentrations of the compounds in the 96-well plate were 10 μM, 2 μM, 400 nM, 80 nM, 16 nM, 3.2 nM, 0.64 nM, 0.128 nM and 0.0256 nM, respectively. The resulting 96-well plate was put on an oscillator to be oscillated at 500 rpm for 10 minutes.
(2) The 96-well plate as prepared was put in a CO2 incubator for 72-hour culture.
(1) CCK-8 test solution was pipetted into the 96-well cell culture plate in an amount of 15 μL/well by a pipette with a volume set to 15 μL.
(2) The 96-well plate was put in the CO2 incubator for 4-hour culture. […]

IC50: 1.98 nM
Structure (SMILES): CCNC(=O)c1cc2c(-c3sc(C(C)(C)O)cc3N3CCc4ccccc43)cn(C)c(=O)c2[nH]1 [Compound 1, N-ethyl-4-(5-(2-hydroxypropyl-2-yl)-3-(indolin-1-yl)thiophen-2-yl)-6-methyl-7-oxo-6,7-dihydro-1H-pyrrolo[2,3-c]pyridine-2-carboxamide]
